According to ChEMBL document CHEMBL1671689, “Activity of ceftaroline against recent emerging serotypes of Streptococcus pneumoniae in the United States” (2010):

Experiments:
Type in all cases: functional
[1] = tested on: Streptococcus pneumoniae; assay: Antimicrobial activity against Streptococcus pneumoniae serotype 19A by broth microdilution method
[2] = tested on: Streptococcus pneumoniae; assay: Antimicrobial activity against Streptococcus pneumoniae serotype 11A by broth microdilution method
[3] = tested on: Streptococcus pneumoniae; assay: Antimicrobial activity against multiple drug resistant Streptococcus pneumoniae serotype 19A by broth microdilution method
[4] = tested on: Streptococcus pneumoniae; assay: Antimicrobial activity against Streptococcus pneumoniae serotype 35B by broth microdilution method
[5] = tested on: Streptococcus pneumoniae; assay: Antimicrobial activity against multiple drug resistant Streptococcus pneumoniae serotype 19F by broth microdilution method
[6] = tested on: Streptococcus pneumoniae; assay: Antimicrobial activity against Streptococcus pneumoniae serotype 7F by broth microdilution method
[7] = tested on: Streptococcus pneumoniae; assay: Antimicrobial activity against multiple drug resistant Streptococcus pneumoniae serotype 6B by broth microdilution method
[8] = tested on: Streptococcus pneumoniae; assay: Antimicrobial activity against Streptococcus pneumoniae serotype 3 by broth microdilution method
[9] = tested on: Streptococcus pneumoniae; assay: Antimicrobial activity against Streptococcus pneumoniae serotype 6C by broth microdilution method
[10] = tested on: Streptococcus pneumoniae; assay: Antimicrobial activity against multiple drug resistant Streptococcus pneumoniae serotype 19A assessed as percent susceptible isolates by broth microdilution method
[11] = tested on: Streptococcus pneumoniae; assay: Antimicrobial activity against Streptococcus pneumoniae serotype 15A assessed as percent susceptible isolates by broth microdilution method
[12] = tested on: Streptococcus pneumoniae; assay: Antimicrobial activity against multiple drug resistant Streptococcus pneumoniae serotype 6B assessed as percent susceptible isolates by broth microdilution method
[13] = tested on: Streptococcus pneumoniae; assay: Antimicrobial activity against Streptococcus pneumoniae serotype 19A assessed as percent susceptible isolates by broth microdilution method
[14] = tested on: Streptococcus pneumoniae; assay: Antimicrobial activity against Streptococcus pneumoniae serotype 23A assessed as percent susceptible isolates by broth microdilution method
[15] = tested on: Streptococcus pneumoniae; assay: Antimicrobial activity against Streptococcus pneumoniae serotype 19F assessed as percent susceptible isolates by broth microdilution method
[16] = tested on: Streptococcus pneumoniae; assay: Antimicrobial activity against Streptococcus pneumoniae serotype 22F assessed as percent susceptible isolates by broth microdilution method
[17] = tested on: Streptococcus pneumoniae; assay: Antimicrobial activity against Streptococcus pneumoniae serotype 3 assessed as percent susceptible isolates by broth microdilution method
[18] = tested on: Streptococcus pneumoniae; assay: Antimicrobial activity against Streptococcus pneumoniae serotype 35B assessed as percent susceptible isolates by broth microdilution method
[19] = tested on: Streptococcus pneumoniae; assay: Antimicrobial activity against multiple drug resistant Streptococcus pneumoniae serotype 19F assessed as percent susceptible isolates by broth microdilution method
[20] = tested on: Streptococcus pneumoniae; assay: Antimicrobial activity against Streptococcus pneumoniae serotype 7F assessed as percent susceptible isolates by broth microdilution method
[21] = tested on: Streptococcus pneumoniae; assay: Antimicrobial activity against Streptococcus pneumoniae serotype 6C assessed as percent susceptible isolates by broth microdilution method
[22] = tested on: Streptococcus pneumoniae; assay: Antimicrobial activity against Streptococcus pneumoniae serotype 11A assessed as percent susceptible isolates by broth microdilution method
[23] = tested on: Streptococcus pneumoniae; assay: Antimicrobial activity against Streptococcus pneumoniae serotype 23B assessed as percent susceptible isolates by broth microdilution method

CCO/N=C(\C(=O)N[C@@H]1C(=O)N2C(C(=O)[O-])=C(Sc3nc(-c4cc[n+](C)cc4)cs3)CS[C@H]12)c1nsc(NP(=O)(O)O)n1 [CEFTAROLINE FOSAMIL]
0.25 µg/mL: MIC90 [1] | MIC50 [3] | MIC90 [3] | MIC50 [5] | MIC90 [5] | MIC50 [7] | MIC90 [7]
0.015 µg/mL: MIC90 [6] | MIC50 [9]
0.06 µg/mL: MIC50 [2] | MIC90 [2] | MIC90 [9]
0.12 µg/mL: MIC50 [1] | MIC50 [4] | MIC90 [4]
≤ 0.008 µg/mL: MIC [6] | MIC50 [6] | MIC [8] | MIC50 [8] | MIC90 [8]

CO/N=C(\C(=O)N[C@@H]1C(=O)N2C(C(=O)O)=C(CSc3nc(=O)c(O)nn3C)CS[C@H]12)c1csc(N)n1 [CEFTRIAXONE]
65.5%: Activity [15]
98%: Activity [22]
≤ 0.25 µg/mL: MIC [2] | MIC50 [2] | MIC90 [2] | MIC [6] | MIC50 [6] | MIC90 [6] | MIC [8] | MIC50 [8] | MIC90 [8]
43.9%: Activity [10] | Activity [12] | Activity [19]
98.3%: Activity [18] | Activity [20]
100%: Activity [11] | Activity [14] | Activity [16] | Activity [17] | Activity [21]
2 µg/mL: MIC90 [1] | MIC50 [3] | MIC50 [5] | MIC50 [7]
1 µg/mL: MIC50 [1] | MIC50 [4] | MIC90 [4]
97%: Activity [23]
0.25 µg/mL: MIC50 [9] | MIC90 [9]
4 µg/mL: MIC90 [3] | MIC90 [5] | MIC90 [7]
65.6%: Activity [13]

CO/N=C(\C(=O)N[C@@H]1C(=O)N2C(C(=O)O)=C(COC(N)=O)CS[C@H]12)c1ccco1 [CEFUROXIME]
91.4%: Activity [11]
4 µg/mL: MIC50 [4] | MIC90 [4] | MIC90 [9]
47.5%: Activity [21]
8 µg/mL: MIC50 [1] | MIC50 [3] | MIC50 [5] | MIC50 [7]
100%: Activity [16] | Activity [17]
96.4%: Activity [14]
0%: Activity [10] | Activity [12] | Activity [19]
36.1%: Activity [13]
≤ 1 µg/mL: MIC [2] | MIC50 [2] | MIC90 [2] | MIC [6] | MIC50 [6] | MIC90 [6] | MIC [8] | MIC50 [8] | MIC90 [8]
> 8 µg/mL: MIC90 [1] | MIC90 [5] | MIC90 [7]
9.6%: Activity [18] | Activity [20]
20.7%: Activity [15]
2 µg/mL: MIC50 [9]
95.2%: Activity [22]
96.8%: Activity [23]

CCC[C@@H]1C[C@@H](C(=O)N[C@@H]([C@H]2O[C@H](SC)[C@H](O)[C@@H](O)[C@H]2O)[C@H](C)Cl)N(C)C1 [CLINDAMYCIN]
10.5%: Activity [11]
81.8%: Activity [14]
> 1 µg/mL: MIC [3]
≤ 0.25 µg/mL: MIC50 [2] | MIC90 [2] | MIC [4] | MIC50 [4] | MIC90 [4] | MIC [6] | MIC50 [6] | MIC90 [6] | MIC50 [8] | MIC90 [8] | MIC50 [9] | MIC90 [9]
31%: Activity [15]
96.3%: Activity [17]
100%: Activity [16] | Activity [18] | Activity [20] | Activity [23]
95.9%: Activity [22]
0%: Activity [10] | Activity [12] | Activity [19]
43.4%: Activity [13]
97.7%: Activity [21]
> 2 µg/mL: MIC50 [1] | MIC90 [1] | MIC50 [5] | MIC90 [5] | MIC50 [7] | MIC90 [7]

CC(=O)NC[C@H]1CN(c2ccc(N3CCOCC3)c(F)c2)C(=O)O1 [LINEZOLID]
1 µg/mL: MIC90 [1] | MIC50 [2] | MIC90 [2] | MIC90 [3] | MIC50 [4] | MIC90 [4] | MIC90 [5] | MIC90 [6] | MIC90 [7] | MIC90 [8] | MIC50 [9] | MIC90 [9]
100%: Activity [11] | Activity [13] | Activity [14] | Activity [15] | Activity [16] | Activity [17] | Activity [18] | Activity [20] | Activity [21] | Activity [22] | Activity [23]
0.5 µg/mL: MIC50 [1] | MIC50 [3] | MIC50 [5] | MIC50 [6] | MIC50 [7] | MIC50 [8]

COc1c(N2C[C@@H]3CCCN[C@@H]3C2)c(F)cc2c(=O)c(C(=O)O)cn(C3CC3)c12 [MOXIFLOXACIN]
96.6%: Activity [15]
97%: Activity [23]
100%: Activity [11] | Activity [13] | Activity [14] | Activity [16] | Activity [17] | Activity [18] | Activity [20] | Activity [21] | Activity [22]
≤ 0.5 µg/mL: MIC [1] | MIC50 [1] | MIC90 [1] | MIC [2] | MIC50 [2] | MIC90 [2] | MIC [4] | MIC50 [4] | MIC90 [4] | MIC [6] | MIC50 [6] | MIC90 [6] | MIC [8] | MIC50 [8] | MIC90 [8] | MIC [9] | MIC50 [9] | MIC90 [9]
99.2%: Activity [10] | Activity [12] | Activity [19]
